From patent US20120083476A1, “HETEROARYL-SUBSTITUTED SPIROCYCLIC DIAMINE UREA MODULATORS OF FATTY ACID AMIDE HYDROLASE” (Janssen Pharmaceutica NV, priority 2009, published 2012)

Legend:
rats [1] = details: WO 02/087569; cited from earlier work
rats [2] = details: WO 02/087569; cited from earlier work; remark: listed apart in the source
FAAH [3] = target: T1, FAAH (Homo sapiens, UniProt O00519); test: Assay Method 1: human FAAH assay (3H-anandamide hydrolysis in cell homogenate); type: biochemical; parameters: expressed in transfected cells; host or cells: SK-N-MC cells stably transfected with human FAAH cDNA (G418 selection); alternatively T84 cell pellets; details: read-out: Assay 1 IC50
T1 sequence (O00519 1-579): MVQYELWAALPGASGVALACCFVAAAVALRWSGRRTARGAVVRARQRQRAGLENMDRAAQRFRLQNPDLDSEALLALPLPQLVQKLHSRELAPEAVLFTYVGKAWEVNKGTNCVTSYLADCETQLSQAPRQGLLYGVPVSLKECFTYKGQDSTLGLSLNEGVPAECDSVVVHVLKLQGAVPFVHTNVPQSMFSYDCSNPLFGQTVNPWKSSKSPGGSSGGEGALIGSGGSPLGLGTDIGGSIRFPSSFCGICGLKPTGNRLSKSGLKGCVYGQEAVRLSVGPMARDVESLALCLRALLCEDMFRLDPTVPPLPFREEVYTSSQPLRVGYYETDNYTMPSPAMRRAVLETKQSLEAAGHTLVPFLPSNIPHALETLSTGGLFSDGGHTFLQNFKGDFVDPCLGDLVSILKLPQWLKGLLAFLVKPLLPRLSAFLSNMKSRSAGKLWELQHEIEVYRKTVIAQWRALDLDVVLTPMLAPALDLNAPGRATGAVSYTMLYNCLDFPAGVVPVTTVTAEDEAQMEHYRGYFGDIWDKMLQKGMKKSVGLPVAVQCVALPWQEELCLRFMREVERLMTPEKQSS
How it was run: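 Homogenates of T84 cells or SK-N-MC cells stably transfected with human FAAH, in pH 9 Tris/EDTA buffer with 0.02% Triton X-100. Incubated 1 h at rt with compound and 80 nM (final) [3H-ethanolamine]-anandamide. Released 3H-ethanolamine separated on charcoal filters and counted by scintillation.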

Rat FAAH = target: T2, Rat FAAH (Rattus norvegicus, UniProt P97612); test: Assay Method 2: rat FAAH assay (3H-anandamide hydrolysis in cell homogenate); type: biochemical; details: read-out: Assay 2 IC50
T2 construct: expressed in transfected cells; host or cells: SK-N-MC cells stably transfected with rat FAAH cDNA (G418 selection)
T2 sequence (P97612 1-579): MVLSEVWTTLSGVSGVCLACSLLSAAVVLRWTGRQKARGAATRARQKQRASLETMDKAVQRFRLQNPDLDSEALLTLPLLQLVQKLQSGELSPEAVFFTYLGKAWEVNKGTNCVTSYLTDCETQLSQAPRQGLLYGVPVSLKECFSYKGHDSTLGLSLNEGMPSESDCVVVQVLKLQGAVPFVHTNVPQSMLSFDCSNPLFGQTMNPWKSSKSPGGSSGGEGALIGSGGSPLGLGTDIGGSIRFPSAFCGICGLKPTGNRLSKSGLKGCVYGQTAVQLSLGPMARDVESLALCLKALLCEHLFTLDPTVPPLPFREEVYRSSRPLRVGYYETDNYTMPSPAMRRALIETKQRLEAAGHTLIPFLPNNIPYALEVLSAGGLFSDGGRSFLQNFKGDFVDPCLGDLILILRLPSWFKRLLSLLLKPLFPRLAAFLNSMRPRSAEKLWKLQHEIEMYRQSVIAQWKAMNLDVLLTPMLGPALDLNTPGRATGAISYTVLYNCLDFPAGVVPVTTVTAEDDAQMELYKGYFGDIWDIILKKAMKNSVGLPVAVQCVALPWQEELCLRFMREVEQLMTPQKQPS
How it was run: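 Homogenates of T84 cells or SK-N-MC cells stably transfected with rat FAAH, in pH 9 Tris/EDTA/glycerol/Triton buffer, incubated 1 h at room temperature with 3H-anandamide. Released labeled ethanolamine separated from substrate on activated charcoal and counted by scintillation; values averaged over runs.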

rats [4] = details: WO 04/033652; cited from earlier work
rats [5] = details: cited from earlier work
FAAH [6] = target: T1, FAAH; details: WO 04/033652; cited from earlier work
rats [7] = details: rat; Kathuria 2003; cited from earlier work

Row | SMILES | IC50 (FAAH [3]) [nM] | IC50 (Rat FAAH) [µM] | other results
1 | Cc1nc(-c2ccccc2)c(-c2ccccc2)n1CCCCCCNC(=O)Oc1ccccc1F [BMS-1] | – | – | analgesic effect in Chung spinal nerve ligation model (rats [1]): analgesic effect; analgesic effect in Hargraves test of acute thermal nociception (rats [2]): analgesic effect
2 | O=C(Nc1cccnc1)N1CC2(CCN(Cc3ccccc3O)CC2)C1 [Example 107, 7-(2-hydroxybenzyl)-N-(pyridin-3-yl)-2,7-diazaspiro[3.5]nonane-2-carboxamide] | > 10000 | > 10 | –
3 | O=C(Nc1cccnc1)N1CC2(CCN(Cc3ccc4ccccc4c3O)CC2)C1 [Example 108, 7-((1-hydroxynaphthalen-2-yl)methyl)-N-(pyridin-3-yl)-2,7-diazaspiro[3.5]nonane-2-carboxamide] | 8000 | > 10 | –
4 | O=C(Nc1cccnc1)N1CC2(CCN(Cc3ccc(Cl)c(OC(F)(F)F)c3)CC2)C1 [Example 110, 7-(4-chloro-3-(trifluoromethoxy)benzyl)-N-(pyridin-3-yl)-2,7-diazaspiro[3.5]nonane-2-carboxamide] | 1300 | 6 | –
5 | O=C(Nc1cccnc1)N1CC2(CCN(Cc3ccc(OC(F)(F)F)c(Cl)c3)CC2)C1 [Example 111, 7-(3-chloro-4-(trifluoromethoxy)benzyl)-N-(pyridin-3-yl)-2,7-diazaspiro[3.5]nonane-2-carboxamide] | 1180 | > 10 | –
6 | O=C(Nc1cccnc1)N1CC2(CCN(Cc3cccc(Oc4cccc(Cl)c4)c3)CC2)C1 [Example 112, 7-(3-(3-chlorophenoxy)benzyl)-N-(pyridin-3-yl)-2,7-diazaspiro[3.5]nonane-2-carboxamide] | 60 | 0.84 | –
7 | O=C(Nc1cccnc1)N1CC2(CCN(Cc3cccc(Oc4ccc(F)c(C(F)(F)F)c4)c3)CC2)C1 [Example 113, 7-(3-(4-fluoro-3-(trifluoromethyl)phenoxy)benzyl)-N-(pyridin-3-yl)-2,7-diazaspiro[3.5]nonane-2-carboxamide] | 560 | 5 | –
8 | O=C(Nc1cccnc1)N1CC2(CCN(Cc3cccc(Oc4cccc(C(F)(F)F)c4)c3)CC2)C1 [Example 114, N-(pyridin-3-yl)-7-(3-(3-(trifluoromethyl)phenoxy)benzyl)-2,7-diazaspiro[3.5]nonane-2-carboxamide] | 800 | 4 | –
9 | O=C(Nc1cccnc1)N1CC2(CCN(Cc3cccc(Oc4cccc(OC(F)(F)F)c4)c3)CC2)C1 [Example 115, N-(pyridin-3-yl)-7-(3-(3-(trifluoromethoxy)phenoxy)benzyl)-2,7-diazaspiro[3.5]nonane-2-carboxamide] | 750 | 8 | –
10 | N#Cc1cccc(Oc2cccc(CN3CCC4(CC3)CN(C(=O)Nc3cccnc3)C4)c2)c1 [Example 116, 7-(3-(3-cyanophenoxy)benzyl)-N-(pyridin-3-yl)-2,7-diazaspiro[3.5]nonane-2-carboxamide] | 70 | 7.07 | –
11 | O=C(Nc1cccnc1)N1CC2(CCN(Cc3cccc(Oc4cccc(SC(F)(F)F)c4)c3)CC2)C1 [Example 117, N-(pyridin-3-yl)-7-(3-(3-(trifluoromethylthio)phenoxy)benzyl)-2,7-diazaspiro[3.5]nonane-2-carboxamide] | 3000 | 3 | –
12 | O=C(Nc1cccnc1)N1CC2(CCN(Cc3cccc(Oc4ccc5c(c4)OC(F)(F)O5)c3)CC2)C1 [Example 118, 7-[3-(2,2-Difluoro-benzo[1,3]-dioxol-5-yloxy)-benzyl]-2,7-diaza-spiro[3.5]nonane-2-carboxylic acid pyridin-3-ylamide] | 160 | 0.6 | –
13 | O=C(Nc1cccnc1)N1CC2(CCN(Cc3cccc(Oc4ccccc4)c3)CC2)C1 [Example 119, 7-(3-Phenoxy-benzyl)-2,7-diaza-spiro[3.5]nonane-2-carboxylic acid pyridin-3-ylamide] | 100 | 4 | –
14 | O=C(Nc1cccnc1)N1CC2(CCN(Cc3cccc(Oc4ccccc4Cl)c3)CC2)C1 [Example 121, 7-[3-(2-Chloro-phenoxy)-benzyl]-2,7-diaza-spiro[3.5]nonane-2-carboxylic acid pyridin-3-ylamide] | 30 | 1.2 | –
15 | O=C(Nc1cccnc1)N1CC2(CCN(Cc3cccc(Oc4cccc(Br)c4)c3)CC2)C1 [Example 122, 7-[3-(3-Bromo-phenoxy)-benzyl]-2,7-diaza-spiro[3.5]nonane-2-carboxylic acid pyridin-3-ylamide] | 50 | 1 | –
16 | O=C(Nc1cccnc1)N1CC2(CCN(Cc3cccc(Oc4ccc(Br)cc4)c3)CC2)C1 [Example 123, 7-[3-(4-Bromo-phenoxy)-benzyl]-2,7-diaza-spiro[3.5]nonane-2-carboxylic acid pyridin-3-ylamide] | 200 | 0.03 | –
17 | O=C(Nc1cccnc1)N1CC2(CCN(Cc3cccc(Oc4ccc(F)c(F)c4)c3)CC2)C1 [Example 124, 7-[3-(3,4-Difluoro-phenoxy)-benzyl]-2,7-diaza-spiro[3.5]nonane-2-carboxylic acid pyridin-3-ylamide] | 300 | 0.4 | –
18 | O=C(Nc1cccnc1)N1CC2(CCN(Cc3cccc(Oc4ccc(OC(F)(F)F)cc4)c3)CC2)C1 [Example 125, 7-[3-(4-Trifluoromethoxy-phenoxy)-benzyl]-2,7-diaza-spiro[3.5]nonane-2-carboxylic acid pyridin-3-ylamide] | 2600 | 3 | –
19 | O=C(Nc1cccnc1)N1CC2(CCN(Cc3cccc(Oc4ccc(C(F)(F)F)cc4)c3)CC2)C1 [Example 126, 7-[3-(4-Trifluoromethyl-phenoxy)-benzyl]-2,7-diaza-spiro[3.5]nonane-2-carboxylic acid pyridin-3-ylamide] | 160 | 1 | –
20 | N#Cc1ccc(Oc2cccc(CN3CCC4(CC3)CN(C(=O)Nc3cccnc3)C4)c2)cc1 [Example 127, 7-[3-(4-Cyano-phenoxy)-benzyl]-2,7-diaza-spiro[3.5]nonane-2-carboxylic acid pyridin-3-ylamide] | 4000 | 1.1 | –
21 | O=C(Nc1cccnc1)N1CC2(CCN(Cc3cccc(Oc4ccc(S(=O)(=O)C(F)(F)F)cc4)c3)CC2)C1 [Example 129, 7-[3-(4-Trifluoromethanesulfonyl-phenoxy)-benzyl]-2,7-diaza-spiro[3.5]nonane-2-carboxylic acid pyridin-3-ylamide] | 1700 | 8 | –
22 | O=C(Nc1cccnc1)N1CC2(CCN(Cc3cccc(Oc4ccc5ncccc5c4)c3)CC2)C1 [Example 130, 7-[3-(Quinolin-6-yloxy)-benzyl]-2,7-diaza-spiro[3.5]nonane-2-carboxylic acid pyridin-3-ylamide] | 830 | 2.5 | –
23 | O=C(Nc1cccnc1)N1CC2(CCN(Cc3cccc(C#Cc4ccccc4Cl)c3)CC2)C1 [Example 131, 7-[3-(2-Chloro-phenylethynyl)-benzyl]-2,7-diaza-spiro[3.5]nonane-2-carboxylic acid pyridin-3-ylamide] | 330 | 3 | –
24 | O=C(CCCCCCc1ccccc1)c1ncc(-c2ccccn2)o1 [OL-135] | – | – | analgesic activity in tail emersion test (rats [4]): analgesic activity; analgesia in hot plate test (rats [5]): analgesic activity; inhibition of FAAH (FAAH [6]): potent inhibitor
25 | NC(=O)c1cccc(-c2cccc(OC(=O)NC3CCCCC3)c2)c1 [URB-597] | – | – | analgesia in hot plate test (rats [5]): analgesic efficacy; analgesic efficacy in formalin test (rats [7]): analgesic efficacy
